Converted amounts (≈) assume the structure as drawn. The source made the active and inactive calls. The rule behind the calls is not given here.
Legend:
Citrobacter freundii [1] = assay: Antibacterial activity against non-gentamicin-resistant Citrobacter freundii clinical isolate assessed as susceptible isolates after 18 hrs by agar dilution method; assay type: functional
Escherichia coli [2] = assay: Antibacterial activity against gentamicin-resistant Escherichia coli clinical isolate after 18 hrs by agar dilution method; assay type: functional
[3] = system: Staphylococcus epidermidis; assay: Antibacterial activity against non-gentamicin-resistant Staphylococcus epidermidis clinical isolate assessed as susceptible isolates after 18 hrs by agar dilution method; assay type: functional
Citrobacter freundii [4] = assay: Antibacterial activity against gentamicin-resistant Citrobacter freundii clinical isolate assessed as susceptible isolates after 18 hrs by agar dilution method; assay type: functional
Providencia rettgeri [5] = assay: Antibacterial activity against gentamicin-resistant Proteus rettgeri clinical isolate after 18 hrs by agar dilution method; assay type: functional
[6] = system: Acinetobacter calcoaceticus; assay: Antibacterial activity against gentamicin-resistant Acinetobacter calcoaceticus clinical isolate after 18 hrs by agar dilution method; assay type: functional
[7] = system: Staphylococcus epidermidis; assay: Antibacterial activity against gentamicin-resistant Staphylococcus epidermidis clinical isolate after 18 hrs by agar dilution method; assay type: functional
Providencia rettgeri [8] = assay: Antibacterial activity against non-gentamicin-resistant Proteus rettgeri clinical isolate assessed as susceptible isolates after 18 hrs by agar dilution method; assay type: functional
Staphylococcus aureus [9] = assay: Antibacterial activity against non-gentamicin-resistant Staphylococcus aureus clinical isolate assessed as susceptible isolates after 18 hrs by agar dilution method; assay type: functional
Citrobacter freundii [10] = assay: Antibacterial activity against non-gentamicin-resistant Citrobacter freundii clinical isolate after 18 hrs by agar dilution method; assay type: functional
Citrobacter koseri [11] = assay: Antibacterial activity against gentamicin-resistant Citrobacter diversus clinical isolate after 18 hrs by agar dilution method; assay type: functional
Enterococcus faecalis = assay: Antibacterial activity against gentamicin-resistant Enterococcus faecalis clinical isolate assessed as susceptible isolates after 18 hrs by agar dilution method; assay type: functional, organism-based
Pseudomonas sp. [12] = assay: Antibacterial activity against non-gentamicin-resistant Pseudomonas spp. clinical isolate assessed as susceptible isolates after 18 hrs by agar dilution method; assay type: functional
Staphylococcus aureus [13] = assay: Antibacterial activity against gentamicin-resistant Staphylococcus aureus clinical isolate assessed as susceptible isolates after 18 hrs by agar dilution method; assay type: functional
[14] = system: Acinetobacter calcoaceticus; assay: Antibacterial activity against non-gentamicin-resistant Acinetobacter calcoaceticus clinical isolate assessed as susceptible isolates after 18 hrs by agar dilution method; assay type: functional
Proteus mirabilis [15] = assay: Antibacterial activity against non-gentamicin-resistant Proteus mirabilis clinical isolate after 18 hrs by agar dilution method; assay type: functional
Klebsiella pneumoniae [16] = assay: Antibacterial activity against non-gentamicin-resistant Klebsiella pneumoniae clinical isolate assessed as susceptible isolates after 18 hrs by agar dilution method; assay type: functional
Serratia marcescens [17] = assay: Antibacterial activity against non-gentamicin-resistant Serratia marcescens clinical isolate assessed as susceptible isolates after 18 hrs by agar dilution method; assay type: functional
[18] = system: Staphylococcus epidermidis; assay: Antibacterial activity against non-gentamicin-resistant Staphylococcus epidermidis clinical isolate after 18 hrs by agar dilution method; assay type: functional
[19] = system: Haemophilus parainfluenzae; assay: Antibacterial activity against non-gentamicin-resistant Haemophilus parainfluenzae clinical isolate after 18 hrs by agar dilution method; assay type: functional
Pseudomonas aeruginosa = assay: Antibacterial activity against gentamicin-resistant Pseudomonas aeruginosa clinical isolate assessed as susceptible isolates after 18 hrs by agar dilution method; assay type: functional
Enterobacter cloacae = assay: Antibacterial activity against gentamicin-resistant Enterobacter cloacae clinical isolate after 18 hrs by agar dilution method; assay type: functional
Klebsiella aerogenes [20] = assay: Antibacterial activity against gentamicin-resistant Enterobacter aerogenes clinical isolate after 18 hrs by agar dilution method; assay type: functional
[21] = system: Staphylococcus epidermidis; assay: Antibacterial activity against gentamicin-resistant Staphylococcus epidermidis clinical isolate assessed as susceptible isolates after 18 hrs by agar dilution method; assay type: functional
Citrobacter koseri [22] = assay: Antibacterial activity against non-gentamicin-resistant Citrobacter diversus clinical isolate after 18 hrs by agar dilution method; assay type: functional
Escherichia coli [23] = assay: Antibacterial activity against non-gentamicin-resistant Escherichia coli clinical isolate after 18 hrs by agar dilution method; assay type: functional
Morganella morganii [24] = assay: Antibacterial activity against non-gentamicin-resistant Morganella morganii clinical isolate after 18 hrs by agar dilution method; assay type: functional
Proteus mirabilis [25] = assay: Antibacterial activity against gentamicin-resistant Proteus mirabilis clinical isolate after 18 hrs by agar dilution method; assay type: functional
Morganella morganii [26] = assay: Antibacterial activity against gentamicin-resistant Morganella morganii clinical isolate assessed as susceptible isolates after 18 hrs by agar dilution method; assay type: functional
Serratia marcescens [27] = assay: Antibacterial activity against non-gentamicin-resistant Serratia marcescens clinical isolate after 18 hrs by agar dilution method; assay type: functional
Citrobacter freundii [28] = assay: Antibacterial activity against gentamicin-resistant Citrobacter freundii clinical isolate after 18 hrs by agar dilution method; assay type: functional
Morganella morganii [29] = assay: Antibacterial activity against gentamicin-resistant Morganella morganii clinical isolate after 18 hrs by agar dilution method; assay type: functional
Klebsiella pneumoniae [30] = assay: Antibacterial activity against gentamicin-resistant Klebsiella pneumoniae clinical isolate assessed as susceptible isolates after 18 hrs by agar dilution method; assay type: functional
Pseudomonas sp. [31] = assay: Antibacterial activity against gentamicin-resistant Pseudomonas spp. clinical isolate assessed as susceptible isolates after 18 hrs by agar dilution method; assay type: functional
Citrobacter koseri [32] = assay: Antibacterial activity against non-gentamicin-resistant Citrobacter diversus clinical isolate assessed as susceptible isolates after 18 hrs by agar dilution method; assay type: functional
Providencia rettgeri [33] = assay: Antibacterial activity against gentamicin-resistant Proteus rettgeri clinical isolate assessed as susceptible isolates after 18 hrs by agar dilution method; assay type: functional
[34] = system: Acinetobacter calcoaceticus; assay: Antibacterial activity against gentamicin-resistant Acinetobacter calcoaceticus clinical isolate assessed as susceptible isolates after 18 hrs by agar dilution method; assay type: functional
Escherichia coli [35] = assay: Antibacterial activity against gentamicin-resistant Escherichia coli clinical isolate assessed as susceptible isolates after 18 hrs by agar dilution method; assay type: functional
Staphylococcus aureus [36] = assay: Antibacterial activity against gentamicin-resistant Staphylococcus aureus clinical isolate after 18 hrs by agar dilution method; assay type: functional
[37] = system: Haemophilus parainfluenzae; assay: Antibacterial activity against non-gentamicin-resistant Haemophilus parainfluenzae clinical isolate assessed as susceptible isolates after 18 hrs by agar dilution method; assay type: functional, organism-based
Pseudomonas sp. [38] = assay: Antibacterial activity against gentamicin-resistant Pseudomonas spp. clinical isolate after 18 hrs by agar dilution method; assay type: functional
Proteus mirabilis [39] = assay: Antibacterial activity against gentamicin-resistant Proteus mirabilis clinical isolate assessed as susceptible isolates after 18 hrs by agar dilution method; assay type: functional
Escherichia coli [40] = assay: Antibacterial activity against non-gentamicin-resistant Escherichia coli clinical isolate assessed as susceptible isolates after 18 hrs by agar dilution method; assay type: functional
Klebsiella aerogenes [41] = assay: Antibacterial activity against gentamicin-resistant Enterobacter aerogenes clinical isolate assessed as susceptible isolates after 18 hrs by agar dilution method; assay type: functional
Serratia marcescens [42] = assay: Antibacterial activity against gentamicin-resistant Serratia marcescens clinical isolate assessed as susceptible isolates after 18 hrs by agar dilution method; assay type: functional
Serratia marcescens [43] = assay: Antibacterial activity against gentamicin-resistant Serratia marcescens clinical isolate after 18 hrs by agar dilution method; assay type: functional

## NCC[C@H](O)C(=O)N[C@@H]1C[C@H](N)[C@@H](O[C@H]2O[C@H](CN)[C@@H](O)[C@H](O)[C@H]2O)[C@H](O)[C@H]1O[C@H]1O[C@H](CO)[C@@H](O)[C@H](N)[C@H]1O [AMIKACIN]
Citrobacter freundii [1]
  Activity: 100%
Escherichia coli [2]
  MIC50: 1 µg/mL (≈ 1.71 µM)
  MIC90: 4 µg/mL (≈ 6.83 µM)
[3]
  Activity: 98.8%
Citrobacter freundii [4]
  Activity: 31.6%
Providencia rettgeri [5]
  MIC50: 1 µg/mL (≈ 1.71 µM)
  MIC90: 32 µg/mL (≈ 54.6 µM)
[6]
  MIC50: 16 µg/mL (≈ 27.3 µM)
  MIC90: > 128 µg/mL
[7]
  MIC50: 4 µg/mL (≈ 6.83 µM)
  MIC90: 64 µg/mL (≈ 109 µM)
Providencia rettgeri [8]
  Activity: 84.6%
Staphylococcus aureus [9]
  Activity: 100%
Citrobacter freundii [10]
  MIC50: 2 µg/mL (≈ 3.42 µM)
  MIC90: 4 µg/mL (≈ 6.83 µM)
Citrobacter koseri [11]
  MIC50: 32 µg/mL (≈ 54.6 µM)
  MIC90: 64 µg/mL (≈ 109 µM)
Enterococcus faecalis
  Activity: inactive
Pseudomonas sp. [12]
  Activity: 90.9%
Staphylococcus aureus [13]
  Activity: 80.6%
[14]
  Activity: 98%
Proteus mirabilis [15]
  MIC50: 2 µg/mL (≈ 3.42 µM)
  MIC90: 4 µg/mL (≈ 6.83 µM)
Klebsiella pneumoniae [16]
  Activity: 100%
Serratia marcescens [17]
  Activity: 96.3%
[18]
  MIC50: 0.5 µg/mL (≈ 0.854 µM)
  MIC90: 2 µg/mL (≈ 3.42 µM)
[19]
  MIC50: 4 µg/mL (≈ 6.83 µM)
  MIC90: 8 µg/mL (≈ 13.7 µM)
Pseudomonas aeruginosa
  Activity: 85.3%
Enterobacter cloacae
  MIC50: 16 µg/mL (≈ 27.3 µM)
  MIC90: 32 µg/mL (≈ 54.6 µM)
Klebsiella aerogenes [20]
  MIC50: 16 µg/mL (≈ 27.3 µM)
  MIC90: 64 µg/mL (≈ 109 µM)
[21]
  Activity: 73.1%
Citrobacter koseri [22]
  MIC50: 1 µg/mL (≈ 1.71 µM)
  MIC90: 2 µg/mL (≈ 3.42 µM)
Escherichia coli [23]
  MIC50: 1 µg/mL (≈ 1.71 µM)
  MIC90: 2 µg/mL (≈ 3.42 µM)
Morganella morganii [24]
  MIC50: 1 µg/mL (≈ 1.71 µM)
  MIC90: 2 µg/mL (≈ 3.42 µM)
Proteus mirabilis [25]
  MIC50: 4 µg/mL (≈ 6.83 µM)
  MIC90: > 128 µg/mL
Morganella morganii [26]
  Activity: 83.3%
Serratia marcescens [27]
  MIC50: 1 µg/mL (≈ 1.71 µM)
  MIC90: 2 µg/mL (≈ 3.42 µM)
Citrobacter freundii [28]
  MIC50: 2 µg/mL (≈ 3.42 µM)
  MIC90: 32 µg/mL (≈ 54.6 µM)
Morganella morganii [29]
  MIC50: 1 µg/mL (≈ 1.71 µM)
  MIC90: 4 µg/mL (≈ 6.83 µM)
Klebsiella pneumoniae [30]
  Activity: 82.1%
Pseudomonas sp. [31]
  Activity: 7.7%
Citrobacter koseri [32]
  Activity: 100%
Providencia rettgeri [33]
  Activity: 80%
[34]
  Activity: 48%
Escherichia coli [35]
  Activity: 93%
Staphylococcus aureus [36]
  MIC50: 8 µg/mL (≈ 13.7 µM)
  MIC90: 128 µg/mL (≈ 219 µM)
[37]
  Activity: inactive
Pseudomonas sp. [38]
  MIC50: > 128 µg/mL
  MIC90: > 128 µg/mL
Proteus mirabilis [39]
  Activity: 63.6%
Escherichia coli [40]
  Activity: 100%
Klebsiella aerogenes [41]
  Activity: 55%
Serratia marcescens [42]
  Activity: 30%
Serratia marcescens [43]
  MIC50: > 128 µg/mL
  MIC90: > 128 µg/mL

From ChEMBL document CHEMBL1275533, “In vitro antibacterial activity of vertilmicin and its susceptibility to modifications by the recombinant AAC6'-APH2'' enzyme” (2008)
